The subject of data set [1] is MCF-7 breast cancer cell line. Description: MTT cancer cell antiproliferative assay, MCF-7. The format is cell-based. As to conditions: Homo sapiens, MCF7, 24 h treatment. As for the experimental part: (§1) The newly synthesized compounds 4a–e, 6a–c and 9a–d were evaluated for their in vitro anticancer activity against two breast cancer cell lines; Michigan cancer foundation-7 (MCF-7) and M.D. Anderson metastasis breast cancer-231 (MDA-MB-231) according to (3-(4,5-dimethylthiazole-2-yl)-2,5-diphenyltetrazolium bromide) tetrazolium (MTT) assay method by using erlotinib as positive tyrosine kinase (TK) drug.
(§2) The in vitro anticancer activities of the target compounds against two breast cancer cell lines; luminal human breast adenocarcinoma (estrogen-receptor (ER) and progesterone-receptor (PR)) positive MCF-7 and negative human breast cancer (MDA-MB-231) cell lines were evaluated as described with some modifications. Cell line cells were obtained from American Type Culture Collection, cells was cultured using DMEM (Invitrogen Life Technologies, Waltham, MA, USA) supplemented with 10% FBS (Hyclone, Logan, UT, USA), 10 µg/mL of insulin (Sigma, St. Louis, MO, USA), and 1% penicillin-streptomycin. All of the other chemical sand reagents were from (Sigma, St. Louis, MO, USA). The cells […] were sub-cultured into a 96-well plate with […] per well in medium, at 37 °C, 5% CO2 and 95% air atmosphere, before being treated with or without various concentrations of test compounds, each in triplicate for 24 h. At the end of the incubation, the cells were harvested and washed with PBS. 20 µL of MTT was added to each well and incubated for 2 h before 200 µL DMSO was added. The absorbance was measured on an ELISA reader (Multiskan EX, Lab systems, Waltham, MA, USA) at a test wavelength of 570 nm.

Data set [2] relates to MDA-MB-231 breast cancer cell line. The data set is described as follows: MTT cancer cell antiproliferative assay, MDA-MB-231. As to conditions: 24 h treatment. The format is cell-based, human. As for the experimental part: as §1, §2
Data set [3] has as its target T1, epidermal growth factor receptor (EGFR) tyrosine kinase (TK) (Homo sapiens, UniProt P00533).
T1 construct: purchased Cell Signaling Technology
The data set is described as follows: EGFR TK inhibition assay (HT Scan EGFR kinase assay kit). It counts as biochemical. The conditions noted are these: GST-EGFR protein, 400 μM ATP. On the procedure: The compound (4b) bears flexible benzylamine terminal moiety, while the (6a) and (6c) derivatives bear sulphonamide moieties and 9a–b with Schiff fragments.
EGFR kinase activity was measured by HT Scan EGFR kinase assay kits (Cell Signaling Technology, Danvers, MA, USA). The experiments were done following the manufacturer’s directions. […] Strapavidin-coated 96-well plates was used to take phosphorylated substrate. Anti-phosphotyrosine and europium-labeled secondary antibodies (DELFIA, Perkin-Elmer, Akron, OH, USA) was used to monitor the level of phosphorylation. At the end of the assay, the enrichment solution was added and enzyme activity was assessed in the Wallac Victor II 1420 micro-plate reader (Abcam, Milton, Cambridge, UK) and […].

For data set [4], the target named is tubulin polymerization (Tubulin Beta, Tubb) (Homo sapiens, UniProt P07437+P68363). The data set is described as follows: Tubulin polymerization inhibition (ELISA for Tubulin Beta). It counts as biochemical. An excerpt: Microtubule-targeting agents affect microtubule function and stop mitosis, resulting in necrosis and apoptosis and eventually cell death.
This assay was done according to reported procedures

Data set [5] concerns MDA-MB-231 cells. Description: Annexin V-FITC apoptosis analysis. The format is cell-based, human. The conditions noted are these: IC50 concentration, 48 h. An excerpt:
Apoptosis induction was examined in treated MDA-MB-231 cells by use of an Annexin V-fluorescine isothiocyanate (FITC) (Abcam, Milton, Cambridge, UK). The treatment of the cells with target compound (6c) and erlotinib drug with antiproliferative detected concentrations have been applied for comparison. […] The apoptosis-inducing effect of target compound was investigated by flow cytometric analysis of MDA-MB-231 cells stained with Annexin V and propidium iodide. […] This might be extra behavior interpreting the potent cytotoxic effect of such compounds.
This analysis was performed following the reported procedures.

Where “and” joins values, the source holds several entries; their conditions need not be identical. Equal values may be shown once.

T1 sequence (P00533 25-1210): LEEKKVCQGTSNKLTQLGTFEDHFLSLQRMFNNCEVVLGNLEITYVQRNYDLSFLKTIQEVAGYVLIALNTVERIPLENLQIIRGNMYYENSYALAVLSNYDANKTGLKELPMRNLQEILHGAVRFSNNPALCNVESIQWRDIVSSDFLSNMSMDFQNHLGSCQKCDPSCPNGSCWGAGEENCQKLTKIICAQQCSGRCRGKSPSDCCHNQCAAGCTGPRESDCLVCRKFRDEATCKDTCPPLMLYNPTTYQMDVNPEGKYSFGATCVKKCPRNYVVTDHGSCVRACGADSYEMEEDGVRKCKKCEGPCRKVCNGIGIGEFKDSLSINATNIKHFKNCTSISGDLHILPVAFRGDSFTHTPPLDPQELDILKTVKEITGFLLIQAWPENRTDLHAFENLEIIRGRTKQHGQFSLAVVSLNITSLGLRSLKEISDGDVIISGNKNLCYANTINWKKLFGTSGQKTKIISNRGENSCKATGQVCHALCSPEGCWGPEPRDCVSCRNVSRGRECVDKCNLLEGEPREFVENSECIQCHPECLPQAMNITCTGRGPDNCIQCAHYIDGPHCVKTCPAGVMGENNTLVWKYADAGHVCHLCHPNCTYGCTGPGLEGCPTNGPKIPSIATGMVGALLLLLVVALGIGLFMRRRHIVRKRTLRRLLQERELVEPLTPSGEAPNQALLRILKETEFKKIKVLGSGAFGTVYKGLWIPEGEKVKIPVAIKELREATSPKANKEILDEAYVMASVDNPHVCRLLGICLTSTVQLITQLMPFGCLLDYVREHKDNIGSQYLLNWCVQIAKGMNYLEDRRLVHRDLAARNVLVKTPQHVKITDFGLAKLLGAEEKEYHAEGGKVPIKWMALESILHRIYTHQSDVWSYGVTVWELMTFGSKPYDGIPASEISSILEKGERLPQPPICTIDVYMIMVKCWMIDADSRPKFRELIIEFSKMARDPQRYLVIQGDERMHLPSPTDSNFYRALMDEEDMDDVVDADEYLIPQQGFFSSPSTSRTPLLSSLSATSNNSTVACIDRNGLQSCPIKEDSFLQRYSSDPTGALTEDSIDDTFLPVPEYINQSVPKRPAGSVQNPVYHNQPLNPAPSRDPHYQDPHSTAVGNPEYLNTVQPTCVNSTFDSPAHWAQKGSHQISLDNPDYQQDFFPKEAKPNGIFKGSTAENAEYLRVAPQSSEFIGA
Chain of tubulin polymerization (Tubulin Beta, Tubb) (P07437 whole entry): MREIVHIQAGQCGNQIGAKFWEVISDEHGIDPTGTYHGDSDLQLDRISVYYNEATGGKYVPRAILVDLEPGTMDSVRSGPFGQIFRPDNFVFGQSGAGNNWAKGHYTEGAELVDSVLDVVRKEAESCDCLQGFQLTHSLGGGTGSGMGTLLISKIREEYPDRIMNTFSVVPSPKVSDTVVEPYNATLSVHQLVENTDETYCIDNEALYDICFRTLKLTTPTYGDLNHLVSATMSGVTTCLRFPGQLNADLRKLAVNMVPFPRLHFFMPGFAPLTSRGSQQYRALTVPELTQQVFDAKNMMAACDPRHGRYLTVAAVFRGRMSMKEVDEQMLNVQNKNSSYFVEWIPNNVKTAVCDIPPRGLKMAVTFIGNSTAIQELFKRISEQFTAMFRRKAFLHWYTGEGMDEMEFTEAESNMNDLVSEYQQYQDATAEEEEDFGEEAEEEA
Chain of tubulin polymerization (Tubulin Beta, Tubb) (P68363 whole entry): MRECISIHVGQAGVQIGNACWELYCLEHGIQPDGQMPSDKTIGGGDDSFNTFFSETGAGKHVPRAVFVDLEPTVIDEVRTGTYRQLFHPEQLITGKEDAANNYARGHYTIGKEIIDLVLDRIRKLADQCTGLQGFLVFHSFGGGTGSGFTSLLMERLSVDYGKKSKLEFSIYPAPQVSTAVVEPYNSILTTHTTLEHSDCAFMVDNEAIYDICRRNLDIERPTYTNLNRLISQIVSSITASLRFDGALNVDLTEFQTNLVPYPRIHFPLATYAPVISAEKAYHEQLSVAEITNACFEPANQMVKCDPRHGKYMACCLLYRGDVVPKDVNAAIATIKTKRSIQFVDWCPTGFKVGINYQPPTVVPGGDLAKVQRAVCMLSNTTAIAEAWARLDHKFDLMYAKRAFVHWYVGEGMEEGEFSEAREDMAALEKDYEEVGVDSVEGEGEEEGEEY

Usually IC50 stands for the concentration at which inhibition is half-maximal. High values mean a need for much substance, low ones inhibition by little substance. Broadly, the melting point is the temperature, or range, at which the solid turns liquid. The compound `COC(=O)c1ccccc1NC(=O)c1ccco1` [Compound 2, Methyl 2-(Furan-2-carboxamido)benzoate] yielded a melting point of 190 to 192 °C. This compound also came in with an IC50 in data set [1] of 2.43 ± 0.2 nM. Moreover, in data set [2] (Homo sapiens, MDA-MB-231, 24 h), the IC50 was found to be 1.21 ± 0.25 nM.

Regarding `O=C(Nc1ccccc1C(=O)NCc1ccccc1)c1ccco1` [Compound 4a], the melting point lay within 230 to 232 °C. Besides, the concentration for half-maximal inhibition (IC50) in data set [1] came to 3.35 ± 0.11 nM. This compound returned an IC50 in data set [2] (Homo sapiens, MDA-MB-231, 24 h) of 8.82 ± 0.14 nM.

The compound `COc1ccc(CNC(=O)c2ccccc2NC(=O)c2ccco2)cc1` [Compound 4b, N-{2-[(4-Methoxybenzyl)carbamoyl]phenyl}furan-2-carboxamide] gave a melting point of 207 to 209 °C. The same compound registered an IC50 in data set [1] of 0.45 ± 0.12 nM. Moreover, in data set [2] (Homo sapiens, MDA-MB-231, 24 h), the IC50 was determined as 0.76 ± 0.11 nM. For the same compound, the IC50 in data set [3] was 31 nM and 30.5 nM. This compound also showed an IC50 in data set [4] of 140.8 ± 0.15 nM.

Turning to `O=C(Nc1ccccc1C(=O)NCc1ccc(F)cc1)c1ccco1` [Compound 4c, N-{2-[(4-Fluorobenzyl)carbamoyl]phenyl}furan-2-carboxamide], the melting point was 218 to 220 °C. Further, 2.59 ± 0.32 nM corresponded to half-maximal inhibition in data set [1] (IC50). Further, half-maximal inhibition in data set [2] (Homo sapiens, MDA-MB-231, 24 h) (IC50) was put at 3.11 ± 0.5 nM.

`O=C(Nc1ccccc1C(=O)NCc1ccc(Cl)cc1)c1ccco1` [Compound 4d, N-{2-[(4-Chlorobenzyl)carbamoyl]phenyl}furan-2-carboxamide] had a melting point of 213 to 215 °C. Also, the midpoint of inhibition in data set [1], the IC50, lay at 0.64 ± 0.25 nM. For the same compound, in data set [2] (Homo sapiens, MDA-MB-231, 24 h), the IC50 came out at 3.29 ± 0.14 nM.

Compound `Cc1ccc(CNC(=O)c2ccccc2NC(=O)c2ccco2)cc1` [Compound 4e, N-{2-[(4-Methylbenzyl)carbamoyl]phenyl}furan-2-carboxamide] showed a melting point of 175 to 178 °C. The same compound had an IC50 in data set [1] of 0.88 ± 0.25 nM. For the same compound, the IC50 in data set [2] (Homo sapiens, MDA-MB-231, 24 h) turned out to be 5.59 ± 0.2 nM.

`NS(=O)(=O)c1ccc(NC(=O)c2ccccc2NC(=O)c2ccco2)cc1` [Compound 6a, N-{2-[(4-Sulfamoylphenyl)carbamoyl]phenyl}furan-2-carboxamide] yielded a melting point of 188 to 189 °C. In data set [1], this compound returned an IC50 of 0.62 ± 0.12 nM. This compound also registered an IC50 in data set [2] (Homo sapiens, MDA-MB-231, 24 h) of 0.66 ± 0.11 nM. For the same compound, in data set [3], half-maximal inhibition (IC50) required 85.4 ± 0.32 nM. In data set [4], the midpoint of inhibition, the IC50, lay at 87.6 ± 0.13 nM.

`O=C(Nc1ccccc1C(=O)Nc1ccc(S(=O)(=O)Nc2ccccn2)cc1)c1ccco1` [Compound 6b, N-{2-[(4-(N-(Pyridin-2-Yl)sulfamoyl]phenyl)carbamoyl)phenyl}furan-2-carboxamide] yielded a melting point of 209 to 211 °C. The IC50 in data set [1] was 0.065 nM. In data set [2] (Homo sapiens, MDA-MB-231, 24 h), inhibition was half-maximal at 4.45 ± 0.3 nM (IC50).

With `O=C(Nc1ccccc1C(=O)Nc1ccc(S(=O)(=O)Nc2nccs2)cc1)c1ccco1` [Compound 6c, N-{2-[(4-(N-(Thiazol-2-Yl)sulfamoyl)phenyl)carbamoyl]phenyl}furan-2-carboxamide], the IC50 in data set [1] was found to be 0.34 ± 0.2 nM; in data set [2] it was 0.32 ± 0.21 nM; in data set [2] (Homo sapiens, MDA-MB-231, 24 h), 0.4 nM; in data set [3], 110 ± 0.14 nM; in data set [4], 155 ± 0.25 nM. Besides, the “Apoptosis induction (Annexin V / propidium iodide flow cytometry)” value in data set [5] is “accumulation of apoptotic cells”.

Consider `NNC(=O)c1ccccc1NC(=O)c1ccco1` [Compound 7, N-[2-(Hydrazinecarbonyl)phenyl]furan-2-carboxamide], for which the melting point is 210 to 212 °C. In data set [1], this compound displayed an IC50 of 1.91 ± 0.11 nM. Moreover, in data set [2] (Homo sapiens, MDA-MB-231, 24 h), the IC50 came to 35.85 ± 0.12 nM.

In turn, `O=C(Nc1ccccc1C(=O)N/N=C/c1ccccc1)c1ccco1` [Compound 9a, (E)-N-{2-[(2-Benzylidenehydrazine)-1-carbonyl]phenyl}furan-2-carboxamide] registered a melting point of 205 to 207 °C. The compound also yielded an IC50 in data set [1] of 0.51 ± 0.16 nM. Moreover, the IC50 in data set [2] (Homo sapiens, MDA-MB-231, 24 h) is 0.68 ± 0.02 nM. The compound also yielded an IC50 in data set [3] of 59.3 ± 0.11 nM. In addition, in data set [4], the IC50 was 410.6 ± 0.12 nM.

Turning to `O=C(Nc1ccccc1C(=O)N/N=C/c1ccc(O)cc1O)c1ccco1` [Compound 9b, (E)-N-{2-[2-(2,4-Dihydroxybenzylidene)hydrazine-1-carbonyl]phenyl}furan-2-carboxamide], the IC50 is 0.78 ± 0.11 nM in data set [1]; 0.48 ± 0.01 nM in data set [2] (Homo sapiens, MDA-MB-231, 24 h); 31 nM and 31.2 nM in data set [3]; 108.4 ± 0.14 nM in data set [4].

For the compound `O=C(Nc1ccccc1C(=O)N/N=C/c1ccccn1)c1ccco1` [Compound 9c, (E)-N-{2-[2-(Pyridin-2-ylmethylene)hydrazine-1-carbonyl]phenyl}furan-2-carboxamide], the IC50 turned out to be 0.15 ± 0.15 nM in data set [1] and 14.8 ± 0.2 nM in data set [2] (Homo sapiens, MDA-MB-231, 24 h).

In the case of `O=C(Nc1ccccc1C(=O)N/N=C/c1ccc(Cl)cc1Cl)c1ccco1` [Compound 9d, (E)-N-{2-[2-(2,4-Dichlorobenzylidene)hydrazine-1-carbonyl]phenyl}furan-2-carboxamide], the melting point lay within 212 to 214 °C. Also, the IC50 in data set [1] stood at 0.48 ± 0.14 nM. The same compound had an IC50 in data set [2] (Homo sapiens, MDA-MB-231, 24 h) of 2.53 ± 0.12 nM.

Regarding `C#Cc1cccc(Nc2ncnc3cc(OCCOC)c(OCCOC)cc23)c1` [Erlotinib, reference compound], the IC50 in data set [1] is 0.45 ± 0.08 nM; in data set [2] (Homo sapiens, MDA-MB-231, 24 h) it was 3.74 ± 0.01 nM. Besides, in data set [5], the “Apoptosis induction (Annexin V / propidium iodide flow cytometry)” value is on record as “accumulation of apoptotic cells”.

Values taken from publication PMC5855630, “The Design and Development of Potent Small Molecules as Anticancer Agents Targeting EGFR TK and Tubulin Polymerization” (International Journal of Molecular Sciences, 2018).
